Experimental findings from patent publication US20020098552A1, “Method for producing xanthosine-5'-monophosphate by fermentation using mutant strains of Coryneform bacteria” (priority 2000, published 2002) are described below.

In experiment [1] the test system is Corynebacterium ammoniagenes AGRI45-11 (VKPM B-8009). It is filed as cell-based. The note with it: for Effect on growth of the XMP producer strain: in high concentration, strain AGRI45-11. The protocol: (§1) Corynebacterium ammoniagenes AGRI45-11 (VKPM B-8009) was treated with 50 μg/ml of NTG for 20 minutes. Then cells were plated on PYM medium having the composition (g/L): peptone—10.0, yeast extract—10.0, meat extract—5.0, NaCl—2.5, agar—20.0, and containing 40 g/L, or 50 g/L, or 60 g/L glycine. The inoculated plates were incubated at 30° C. for 5 days.
Corynebacterium ammoniagenes AGRI45-11 (VKPM B-8009) was treated with NTG, and cells were plated on the PYM medium as in Example 1, containing 45 μg/ml, or 50 μg/ml, or 55 μg/ml, or 60 μg/ml polymyxin. The inoculated plates were incubated at 30° C. for 5 days.
The parental strain Corynebacterium ammoniagenes AGRI45-11 (VKPM B-8009) was streaked onto PYM medium of Example 1, containing 5, 15, 30 or 50 μg/ml of rifampicin instead of glycine and inoculated plates were incubated at 34° C. for 3 days. The mutants resistant to rifampicin was selected from among spontaneously appeared colonies.
A series of mutants resistant to 50 or 100 μg/ml oligomycin was selected from the strain Corynebacterium anmoniagenes AGRI45-11 (VKPM B-8009) using the procedure, described in the Example 1, but oligomycin was used instead of glycine.
Corynebacterium ammoniagenes AGRI45-11 (VKPM B-8009) was treated with NTG, and cells were plated on PYM medium as in Example 1, containing 2, 4 or 6 μg/ml of CCCP instead of glycine. The inoculated plates were incubated at 30° C. for 5 days. […] This strain and the parent strain Corynebacterium ammoniagenes AGRI45-11 (VKPM B-8009) were each cultivated at 32° C. for 20 h with aeration in a seed medium as in the Example 1. Then 0.3 ml of the obtained culture was inoculated into 3 ml of the fermentation medium of the Example 1, in 20×200 mm test tubes, and cultivated at 32° C. for 72 hours with a rotary shaker. After the cultivation, an accumulated amount of XMP in the medium was determined by known method.
Corynebacterium ammoniagenes AGRI45-11 (VKPM B-8009) was treated with NTG as in Example 1, aliquots were introduced into 20×200 mm test tubes and incubated at 32° C. for 20 h with shaking in minimal medium having the following composition (see below) with a rotary shaker. Then the cells were collected and plated on the minimal medium agar and containing several combinations of the inhibitors:
(§2) The mutants resistant to the analogue were obtained using the procedure described in Example 6, except for the only combinations of the inhibitors was applied: DL-methionine sulfone-10 mg/ml +DL-methionine-20 mg/ml.

Experiment [2] has as its system Corynebacterium ammoniagenes AGRI93-38 (VKPM B-8003). In words: Growth of the rifampicin-resistant mutant with rifampicin. It is filed as cell-based. The note with it: mutant strain AGRI93-38. The procedure:
The parental strain Corynebacterium ammoniagenes AGRI45-11 (VKPM B-8009) was streaked onto PYM medium of Example 1, containing 5, 15, 30 or 50 μg/ml of rifampicin instead of glycine and inoculated plates were incubated at 34° C. for 3 days. The mutants resistant to rifampicin was selected from among spontaneously appeared colonies. Among the mutants the most productive strain Corynebacterium ammoniagenes AGRI93-38 (VKPM B-8003) was selected.

For experiment [3], the system named is Corynebacterium ammoniagenes AGRI11-51 (VKPM B-8005). Description: Growth of the methionine sulfoxide-resistant mutant with DL-methionine sulfoxide + DL-methionine. The experiment is classed as cell-based. The note with it: mutant strain AGRI11-51. The protocol: Then the cells were collected and plated on the minimal medium agar and containing several combinations of the inhibitors:
Mutants which appeared after 4 to 8 days incubation were picked up and tested for their XMP productivity. Among them the strain Corynebacterium ammoniagenes AGRI11-51 (VKPM B-8005) was selected. This strain and the parent strain Corynebacterium anmoniagenes AGRI45-11 (VKPM B-8009) were each cultivated at 32° C. for 20 h with aeration in a seed medium as in the Example 1. Then 0.3 ml of the obtained culture was inoculated into 3 ml of the fermentation medium of the Example 1, in 20×200 mm test tubes, and cultivated at 32° C. for 72 hours with a rotary shaker. After the cultivation, an accumulated amount of XMP in the medium was determined by known method.

The test system of experiment [4] is Corynebacterium ammoniagenes AGRI47-51 (VKPM B-8007). Description: Growth of the methionine sulfone-resistant mutant with DL-methionine sulfone + DL-methionine. It is filed as cell-based. The conditions noted are these: mutant strain AGRI47-51. The protocol: as §2
Among the mutants which appeared after 4 to 8 days incubation the strain Corynebacterium ammoniagenes AGRI47-51 (VKPM B-8007) was selected. This strain and the parent strain Corynebacterium ammoniagenes AGRI45-11 (VKPM B-8009) were each cultivated at 32° C. for 20 h with aeration in a seed medium as in the Example 1. Then 0.3 ml of the obtained culture was inoculated into 3 ml of the fermentation medium of the Example 1, in 20×200 mm test tubes, and cultivated at 32° C. for 72 hours with a rotary shaker.

Experiment [5] concerns Corynebacterium ammoniagenes AGRI97-52 (VKPM B-8008). Description: Growth of the CCCP-resistant mutant with CCCP. It is filed as cell-based. The conditions noted are these: mutant strain AGRI97-52.
Experiment [6] deals with Corynebacterium ammoniagenes AGRI67-52 (VKPM B-8004). Description: Growth of the oligomycin-resistant mutant in the presence of oligomycin. The experiment is classed as cell-based. The conditions noted are these: mutant strain AGRI67-52. The procedure:
A series of mutants resistant to 50 or 100 μg/ml oligomycin was selected from the strain Corynebacterium anmoniagenes AGRI45-11 (VKPM B-8009) using the procedure, described in the Example 1, but oligomycin was used instead of glycine. […] The best mutant, strain Corynebacterium ammoniagenes AGRI67-52 (VKPM B-8004) when tested in parallel as in Example 1 accumulated about 22 % more XMP than the parental strain Corynebacterium ammoniagenes AGRI45-11 (VKPM B-8009) (Table 4 ).

The subject of experiment [7] is Corynebacterium ammoniagenes AGRI10-52 (VKPM B-8006). The conditions noted are these: mutant strain AGRI10-52. The procedure:
as §1

Experiment [8] deals with Corynebacterium ammoniagenes AGRI101-51 (VKPM B-8010). In words: Growth of the polymyxin-resistant mutant in the presence of polymyxin. The experiment is classed as cell-based. The conditions noted are these: mutant strain AGRI 101-51.
For experiment [9], the system named is Gram-positive bacterium Corynebacterium ammoniagenes. In words: Growth inhibition of Corynebacterium ammoniagenes by polymyxin B. The experiment is classed as cell-based. The conditions noted are these: high concentrations. From the text: Polymyxin B is a polypeptide antibiotics effective against Gram-negative bacteria. The cell membrane of the bacteria is considered to be the target of the antibiotic. […] The mutations conferring resistance to polymyxin B may affect cytoplasmic membrane and mimic a stress condition, inducing XMP efflux transporter. Therefore the mutants resistant to growth inhibition by the drug were selected.

Regarding `CO[C@H]1/C=C/O[C@@]2(C)Oc3c(C)c(O)c4c(O)c(c(/C=N/N5CCN(C)CC5)c(O)c4c3C2=O)NC(=O)/C(C)=C\C=C\[C@H](C)[C@H](O)[C@@H](C)[C@@H](O)[C@@H](C)[C@H](OC(C)=O)[C@@H]1C` [rifampicin], the “Growth with 15 μg/ml rifampicin” value in experiment [1] (15 μg/ml rifampicin, parent strain AGRI45-11) is “−”; in [2] it was “+”.
Regarding `C[S+]([O-])CCC(N)C(=O)O` (racemic) [DL-methionine sulfoxide], the “Growth with 10 mg/ml DL-methionine sulfoxide + 20 mg/ml DL-methionine” value in experiment [1] (10 mg/ml DL-methionine sulfoxide + 20 mg/ml DL-methionine, parent strain AGRI45-11) is given as “−”; in experiment [3] it was “+”. Also, the “Effect on growth of the XMP producer strain” value (from here on “Effect on growth”) in [1] is “inhibited the growth”.
As to `CS(=O)(=O)CCC(N)C(=O)O` (racemic) [DL-methionine sulfone], the “Growth with 10 mg/ml DL-methionine sulfone + 20 mg/ml DL-methionine” value is on record as “−” in experiment [1] (10 mg/ml DL-methionine sulfone + 20 mg/ml DL-methionine, parent strain AGRI45-11) and “+” in experiment [4]. Moreover, the “Effect on growth” value in [1] is reported as “inhibited the growth”.
For `CSCCC(N)C(=O)O` (racemic) [DL-methionine], the “Effect on growth” value in experiment [1] is recorded as “inhibited the growth”.
With `N#CC(C#N)=NNc1cccc(Cl)c1` [CCCP, Carbonyl cyanide m-chlorophenyl hydrazone], the “Growth with 4 μg/ml CCCP” value is given as “−” in [1] (4 μg/ml CCCP, parent strain AGRI45-11) and “+” in [5].
With `CC[C@H]1/C=C/C=C/C[C@@H](C)[C@H](O)[C@@](C)(O)C(=O)[C@@H](C)[C@H](O)[C@@H](C)C(=O)[C@@H](C)[C@H](O)[C@@H](C)/C=C/C(=O)O[C@@H]2[C@H](C)[C@H](CC1)O[C@]1(CC[C@H](C)[C@H](C[C@@H](C)O)O1)[C@H]2C` [oligomycin], the “Growth in the presence of 100 μg/ml oligomycin” value in experiment [1] (100 μg/ml oligomycin, parent strain AGRI45-11) is listed as “−”; in [6], “+”.
Take `NCC(=O)O` [glycine]: the “Growth in the presence of 6% glycine” value in [1] (6% glycine, parent strain AGRI45-11) is “−”; in experiment [7] it was “+”.
Regarding Polymyxin B, the “Growth in the presence of 45 μg/ml polymyxin” value in experiment [1] (45 μg/ml polymyxin, parent strain AGRI45-11) is given as “−”; in experiment [8] it was “+”. Further, the “Concentration that inhibited the growth” value in experiment [9] lay within 40 to 50 µg/mL.
